Measured values taken from patent US10030012B2, “Piperidin-1-yl and azepin-1-yl carboxylates as muscarinic M4 receptor agonists” (Heptares Therapeutics Limited, priority 2013, dated 2018).

Experiments:
human M2 receptor = human M2 receptor (Homo sapiens (Human), UniProt P08172); test: In vitro M2 functional assay (intracellular calcium, FLiPR Tetra); format: cell-based; conditions: for EC50 / M2 EC50: CHOK1 cells stably expressing human M2 receptor and Gα16, calcium flux, No Response = no significant response of calcium flux indicative of agonism; for activation at 10 µM: response at 10 μM compound, relative to an EC100 concentration of acetylcholine, read-out: M2 % RE @ 10 μM; for M2 % RE: relative efficacy to an EC100 concentration of acetylcholine
Chain of human M2 receptor (P08172 whole entry): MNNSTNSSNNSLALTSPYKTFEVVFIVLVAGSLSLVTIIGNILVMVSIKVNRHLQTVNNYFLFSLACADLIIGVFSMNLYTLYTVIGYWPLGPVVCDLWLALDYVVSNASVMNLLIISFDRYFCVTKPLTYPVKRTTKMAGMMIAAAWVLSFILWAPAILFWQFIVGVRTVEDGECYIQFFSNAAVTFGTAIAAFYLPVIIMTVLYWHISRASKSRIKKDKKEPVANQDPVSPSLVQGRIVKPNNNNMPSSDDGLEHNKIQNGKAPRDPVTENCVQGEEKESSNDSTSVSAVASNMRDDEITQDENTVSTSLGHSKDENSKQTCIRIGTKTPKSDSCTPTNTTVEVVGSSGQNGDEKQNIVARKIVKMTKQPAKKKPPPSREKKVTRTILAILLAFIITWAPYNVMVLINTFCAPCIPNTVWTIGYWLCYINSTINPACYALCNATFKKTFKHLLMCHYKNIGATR
Experimental: (§1) In Vitro M4 &M2 Functional Assay
(§2) The functional activity of compounds at the M4 and M2 receptors was determined by measuring changes in the level of intracellular calcium ions caused by signalling cascades mediated by the receptor. Intracellular Calcium levels were measured using a calcium sensitive fluorescent dye, calcium 5 (Molecular Devices) The changes in fluorescence were monitored by a fluorescent imager, FLiPR Tetra (Molecular devices). Increases in intracellular calcium were readily detected upon activation of both receptors by the muscarinic receptor agonist Acetylcholine.
(§3) CHOK1 cells stably expressing human M4 or M2 receptor and co-expressing the accessory g-protein Gα16 were routinely grown as monolayers in Hams-F12 medium (Invitrogen) supplemented with 10% foetal bovine serum (FBS) (Hyclone), 500 ug/mL Geneticin and 250 ug/mL zeocin (both invitrogen) in 5% CO2 at 37° C. Once confluent is cells cryopreserved by freezing at −186° C. in freezing solution (90% FBS 10% DMSO) (Sigma-Aldrich Co.). Twenty-four hours prior to testing cells resuscitated and freezing media removed via centrifugation, cells then seeded in a black walled clear bottom 384 well plates (Corning) at a density of 15,000 cells/well in Hams F12 media supplemented with 10% FBS. On the day of assay, growth media was removed and replaced with 63 μl of Calcium 5 dye solution (Molecular Devices) in assay buffer (HBSS, 20 mM HEPES, 0.1% BSA, 1 mM Probenecid pH7.4 (Sigma-Aldrich Co.)) per well (each vial of Calcium 5 resuspended in 27 mL of assay buffer). Cells were then incubated for 45 minutes at 37° C., 5% CO2. Compound was serially diluted in DMSO (log/half log) before being diluted 1:20 with assay buffer. 7 μl of compound diluted in assay buffer was then added to cells on FLiPR tetra and fluorescence intensity measured for 5 minutes. EC50 values for compounds were determined from ten point half log scale dose-response studies and represent the concentration of compound required to […] maximal response. Curves were generated using the average of duplicate wells for each data point and analyzed using non-linear regression of four parameter dose response. Percentage Relative efficacy (RE) to an EC100 concentration of acetylcholine was reported for all compounds. The results are set out in Table 3 below in which the term “No Response” means that there was no significant response of calcium flux in the assay indicative of agonism.

human M4 receptor = human M4 receptor (Homo sapiens (Human), UniProt P08173); test: In vitro M4 functional assay (intracellular calcium, FLiPR Tetra); format: cell-based; conditions: for Emax: relative efficacy to an EC100 concentration of acetylcholine, read-out: M4 % RE
Chain of human M4 receptor (P08173 whole entry): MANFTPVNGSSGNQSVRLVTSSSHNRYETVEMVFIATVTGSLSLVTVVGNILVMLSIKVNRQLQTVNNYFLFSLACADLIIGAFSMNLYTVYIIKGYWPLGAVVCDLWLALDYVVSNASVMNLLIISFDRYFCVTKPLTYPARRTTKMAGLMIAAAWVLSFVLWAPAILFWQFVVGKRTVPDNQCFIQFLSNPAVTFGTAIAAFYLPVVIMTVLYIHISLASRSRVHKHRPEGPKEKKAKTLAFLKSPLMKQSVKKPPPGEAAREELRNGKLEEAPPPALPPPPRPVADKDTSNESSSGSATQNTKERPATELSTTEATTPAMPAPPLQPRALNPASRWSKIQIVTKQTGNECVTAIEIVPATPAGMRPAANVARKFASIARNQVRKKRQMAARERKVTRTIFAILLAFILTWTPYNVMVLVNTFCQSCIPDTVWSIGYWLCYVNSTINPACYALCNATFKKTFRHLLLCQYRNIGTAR
Experimental: as §1, §2, §3

[1] = CHOK1 cells stably expressing human M4 receptor and Gα16, calcium flux

| Compound | EC50 (human M2 receptor) [nM] | activation at 10 µM (human M2 receptor) [%] | EC50 (human M4 receptor; [1]) [nM] | Emax (human M4 receptor) [%] | M2 EC50 (human M2 receptor) | M2 % RE (human M2 receptor) [%] | M4 EC50 (human M4 receptor; [1]) |
| --- | --- | --- | --- | --- | --- | --- | --- |
| CCOC(=O)N1CCC(N2CCC(c3nccn3C)CC2)CC1 [Example 1, Ethyl 4-[4-(1-methyl-1H-imidazol-2-yl)piperidin-1-yl]piperidine-1-carboxylate] | > 10000 | 34 | 2360 | 49 | – | – | – |
| CCOC(=O)N1CCCC(N2CCC(c3nccn3CC(=O)NC3CCCCC3)CC2)CC1 (centres unmarked) [Example 2, Ethyl 4-(4-{1-[(cyclohexylcarbamoyl)methyl]-1H-imidazol-2-yl}piperidin-1-yl)azepane-1-carboxylate] | – | – | 1870 | 51 | No Response | – | – |
| CCOC(=O)N1CCCC(N2CCC(n3cccc3)CC2)CC1 (centres unmarked) [Example 3, Ethyl 4-[4-(1H-pyrrol-1-yl)piperidin-1yl]azepane-1-carboxylate] | 1540 | – | 330 | 59 | – | 38 | – |
| CCOC(=O)N1CCCC(N2CCC(n3cccn3)CC2)CC1 (centres unmarked) [Example 4, Ethyl 4-[4-(1H-pyrazol-1-yl)piperidin-1yl]azepane-1-carboxylate] | – | – | 140 | 74 | No Response | – | – |
| CCOC(=O)N1CCCC(N2CCC(n3nccc3-c3ccc(Cl)cc3)CC2)CC1 (centres unmarked) [Example 5, Ethyl 4-{4-[5-(4-chlorophenyl)-1H-pyrazol-1-yl]piperidin-1-yl}azepane-1-carboxylate] | > 10000 | 25 | 250 | 49 | – | – | – |
| CCOC(=O)N1CCCC(N2CCC(c3cc[nH]n3)CC2)CC1 (centres unmarked) [Example 6, Ethyl 4-[4-(1H-pyrazol-3-yl)piperidin-1yl]azepane-1-carboxylate] | – | – | 190 | 53 | No Response | – | – |
| CCOC(=O)N1CCCC(N2CCC(n3nccc3-c3ccnn3C)CC2)CC1 (centres unmarked) [Example 7, Ethyl 4-{4-[5-(1-methyl-1H-pyrazol-5-yl)-1H-pyrazol-1-yl]piperidin-1-yl}azepane-1-carboxylate] | > 10000 | 26 | 260 | 75 | – | – | – |
| CCOC(=O)N1CCCC(N2CCC(n3cc(-c4ccc(Cl)cc4)cn3)CC2)CC1 (centres unmarked) [Example 8, Ethyl 4-{4-[4-(4-chlorophenyl)-1H-pyrazol-1-yl]piperidin-1-yl}azepane-1-carboxylate] | – | – | 320 | 59 | No Response | – | – |
| CCOC(=O)N1CCCC(N2CCC(c3nccn3C)CC2)CC1 (centres unmarked) [Example 9, Ethyl 4-[4-(1-methyl-1H-imidazol-2-yl)piperidin-1-yl]azepane-1-carboxylate] | – | – | 1050 | 62 | No Response | – | – |
| CCOC(=O)N1CCCC(N2CCC(c3nccn3CC)CC2)CC1 (centres unmarked) [Example 10, Ethyl 4-[4-(1-ethyl-1H-imidazol-2-yl)piperidin-1-yl]azepane-1-carboxylate] | – | – | 1740 | 44 | No Response | – | – |
| CCCn1ccnc1C1CCN(C2CCCN(C(=O)OCC)CC2)CC1 (centres unmarked) [Example 11, Ethyl 4-[4-(1-propyl-1H-imidazol-2-yl)piperidin-1-yl]azepane-1-carboxylate] | – | – | 960 | 41 | No Response | – | – |
| CCOC(=O)N1CCCC(N2CCC(n3nccc3C)CC2)CC1 (centres unmarked) [Example 12, Ethyl 4-[4-(5-methyl-1H-pyrazol-1-yl)piperidin-1-yl]azepane-1-carboxylate] | > 10000 | 28 | 520 | 82 | – | – | – |
| CCOC(=O)N1CCCC(N2CCC(OC)(c3nccn3C)CC2)CC1 (centres unmarked) [Example 13, Ethyl 4-[4-methoxy-4-(1-methyl-1H-imidazol-2-yl)piperidin-1-yl]azepane-1-carboxylate] | – | – | 2880 | 24 | No Response | – | – |
| CCOC(=O)N1CCCC(N2CCC(c3ccnn3C)CC2)CC1 (centres unmarked) [Example 14, Ethyl 4-[4-(1-methyl-1H-pyrazol-5-yl)piperidin-1-yl]azepane-1-carboxylate] | – | – | 750 | 55 | No Response | – | – |
| CCOC(=O)N1CCCC(N2CCC(c3nnc(C(C)C)o3)CC2)CC1 (centres unmarked) [Example 15, Ethyl 4-(4-(5-isopropyl-1,3,4-oxadiazol-2-yl)piperidin-1-yl)azepane-1-carboxylate] | – | – | 1280 | 44 | No Response | – | – |
| CCOC(=O)N1CCCC(N2CCC(n3ccc(C)n3)CC2)CC1 (centres unmarked) [Example 16, Ethyl 4-[4-(3-methyl-1H-pyrazol-1-yl)piperidin-1-yl]azepane-1-carboxylate] | > 10000 | 24 | 400 | 72 | – | – | – |
| CCOC(=O)N1CCCC(N2CCC(c3cc(-c4cccs4)n[nH]3)CC2)CC1 (centres unmarked) [Example 17, Ethyl 4-{4-[3-(thiophen-2-yl)-1H-pyrazol-5-yl]piperidin-1-yl}azepane-1-carboxylate] | – | – | 810 | 50 | No Response | – | – |
| CCOC(=O)N1CCCC(N2CCC(n3cc(-c4ccc(F)cc4)cn3)CC2)CC1 (centres unmarked) [Example 18, Ethyl 4-{4-[4-(4-fluorophenyl)-1H-pyrazol-1-yl]piperidin-1-yl}azepane-1-carboxylate] | – | – | 410 | 45 | No Response | – | – |
| CCOC(=O)N1CCCC(N2CCC(c3nccn3CC(=O)NC3CC3)CC2)CC1 (centres unmarked) [Example 19, Ethyl 4-(4-{1-[(cyclopropylcarbamoyl)methyl]-1H-imidazol-2-yl}piperidin-1-yl)azepane-1-carboxylate] | – | – | 1510 | 64 | No Response | – | – |
| CCOC(=O)N1CCCC(N2CCC(n3nccc3C3CC3)CC2)CC1 (centres unmarked) [Example 20, Ethyl 4-[4-(5-cyclopropyl-1H-pyrazol-1-yl)piperidin-1-yl]azepane-1-carboxylate] | 2260 | – | 190 | 77 | – | 37 | – |
| CCOC(=O)N1CCCC(N2CCC(n3nccc3C(=O)N(C)C)CC2)CC1 (centres unmarked) [Example 21, Ethyl 4-{4-[5-(dimethylcarbamoyl)-1H-pyrazol-1-yl]piperidin-1-yl}azepane-1-carboxylate] | – | – | 2680 | 45 | No Response | – | – |
| CCOC(=O)N1CCCC(N2CCC(n3nccc3-c3cnn(C(C)C)c3)CC2)CC1 (centres unmarked) [Example 22, Ethyl 4-(4-{5-[1-(propan-2-yl)-1H-pyrazol-4-yl]-1H-pyrazol-1-yl}piperidin-1-yl)azepane-1-carboxylate] | 680 | – | 200 | 68 | – | 38 | – |
| CCOC(=O)N1CCCC(N2CCC(n3nccc3COC)CC2)CC1 (centres unmarked) [Example 23, Ethyl 4-{4-[5-(methoxymethyl)-1H-pyrazol-1-yl]piperidin-1-yl}azepane-1-carboxylate] | – | – | 750 | 67 | No Response | – | – |
| CCOC(=O)N1CCC[C@@H](N2CCC(n3cccn3)CC2)CC1 [Example 82, Ethyl (4R)-4-[4-(1H-pyrazol-1-yl)piperidin-1-yl]azepane-1-carboxylate] | – | – | 460 | 80 | – | – | – |
| CCOC(=O)N1CCC[C@@H](N2CCC(c3nccn3C)CC2)CC1 [Example 84, Ethyl (4R)-4-[4-(1-methyl-1H-imidazol-2-yl)piperidin-1-yl]azepane-1-carboxylate] | – | – | – | – | – | – | No response |
